Results published in patent US7575882B2, “Compositions and methods for identifying modulators of TRPV2” (Janssen Pharmaceutica N. V., priority 2005, dated 2009).

Assays:
[1] = target: T1, rat and human TRPV2 chimera HRR (Rattus norvegicus, UniProt Q9WUD2, A110E/A257S/D189N/D73N/DEL322-322/DEL56-59/DEL67-67/E160D/E240Q/E289D/E384A/E71D/E91D/F161Y/G295D/H202G/H269S/H293L/I268T/K144R/K150Q/K353E/K51R/L151P/L192A/L245Q/L96P/M137L/M277A/N102T/N368H/N45K/N63G/P261A/P325H/P38Q/P60Y/P61R/Q129K/Q163R/Q324S/Q70P/R100S/R388L/R392K/R41G/S264I/S291R/S346A/S391P/S46F/S47A/S65G/S82N/T227S/T93A/V390I/V83A/W101K/W351C/Y323L); test: Calcium mobilization in HEK293 cells expressing TRPV2 chimera HRR; assay type: cell-based; details: expressed separately in HEK cells
T1 construct: expressed in transfected cells; host or cells: HEK293, transient, pCI-neo
T1 sequence (Q9WUD2 with tags, fused parts or gaps P38Q/R41G/N45K/S46F/S47A/K51R/DEL56-59/P60Y/P61R/N63G/S65G/DEL67-67/Q70P/E71D/D73N/S82N/V83A/E91D/T93A/L96P/R100S/W101K/N102T/A110E/Q129K/M137L/K144R/K150Q/L151P/E160D/F161Y/Q163R/D189N/L192A/H202G/T227S/E240Q/L245Q/A257S/P261A/S264I/I268T/H269S/M277A/E289D/S291R/H293L/G295D/DEL322-322/Y323L/Q324S/P325H/S346A/W351C/K353E/N368H/E384A/R388L/V390I/S391P/R392K): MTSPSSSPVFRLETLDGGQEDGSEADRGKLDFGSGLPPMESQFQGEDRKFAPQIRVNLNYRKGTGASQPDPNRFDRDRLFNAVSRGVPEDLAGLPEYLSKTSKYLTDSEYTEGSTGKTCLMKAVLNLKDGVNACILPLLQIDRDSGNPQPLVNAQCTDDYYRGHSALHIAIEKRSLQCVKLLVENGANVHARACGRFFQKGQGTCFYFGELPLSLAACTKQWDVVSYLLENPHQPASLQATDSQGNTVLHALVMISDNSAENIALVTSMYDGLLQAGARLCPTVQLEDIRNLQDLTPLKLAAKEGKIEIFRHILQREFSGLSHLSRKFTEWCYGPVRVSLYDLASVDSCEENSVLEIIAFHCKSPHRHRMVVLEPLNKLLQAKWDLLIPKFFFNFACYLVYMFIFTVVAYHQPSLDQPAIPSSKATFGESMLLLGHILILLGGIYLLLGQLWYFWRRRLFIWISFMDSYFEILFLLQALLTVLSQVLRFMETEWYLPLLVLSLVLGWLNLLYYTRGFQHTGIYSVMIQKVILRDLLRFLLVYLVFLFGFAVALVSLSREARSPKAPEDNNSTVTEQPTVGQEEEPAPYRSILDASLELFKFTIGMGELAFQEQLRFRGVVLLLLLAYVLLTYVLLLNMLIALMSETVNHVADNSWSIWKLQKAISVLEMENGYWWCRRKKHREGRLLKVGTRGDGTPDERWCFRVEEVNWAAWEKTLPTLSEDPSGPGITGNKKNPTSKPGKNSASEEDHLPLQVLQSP
Experimental: (§1) The deletion mutant constructs were then transfected into HEK293 cells using Fugene 6 reagent (Roche) as per the manufacturer's instructions. At 24 hours post-transfection, the cells were harvested and replated in fresh DMEM medium supplemented with 10% fetal bovine serum, 100 units/ml penicillin, and 100 μg/ml streptomycin. The cells were distributed onto poly-D-Lysine coated 96-or 384-well plates at a density of approximately 40,000 and 10,000 cells per well, respectively. At approximately 48 hours post-transfection, the medium was removed from the assay plate and replaced with Calcium 3 Dye Buffer (Molecular Devices) using the protocol available from the manufacturer. Calcium mobilization was triggered using Δ^9-THC or 2-APB or elevated temperature buffer and measured using either FLIPR or FLEX STATION instruments.
(§2) Based on the predicted topology and primary sequence features of TRPV2, TRPV2 are divided into 3 major domains: 1) the amino-terminal intracellular domain; 2) the transmembrane domain; and 3) the carboxyl-terminal intracellular domain. For a chimera, each domain can be of rat (R) or human (H) origin. Three rat and human TRPV2 chimera were constructed and tested herein. RRH (SEQ ID NO:15) was a chimera comprising rat 1-392 aa, rat 393-646 aa, and human 647-764 aa. RHR (SEQ ID NO:16) was a chimera comprising rat 1-392, human 391-646, and rat 647-761. […]

[2] = target: T2, rat and human TRPV2 chimera RRH (Rattus norvegicus, UniProt Q9WUD2, A714S/D654T/DEL680-680/E685A/G695P/H651S/H683Q/K690T/K717Q/L688M/N655D/R687V/R694K/S723C/T698S); test: Calcium mobilization in HEK293 cells expressing TRPV2 chimera RRH; assay type: cell-based; details: expressed separately in HEK cells
T2 construct: expressed in transfected cells; host or cells: HEK293, transient, pCI-neo
T2 sequence (Q9WUD2 with tags, fused parts or gaps H651S/D654T/N655D/DEL680-680/H683Q/E685A/R687V/L688M/K690T/R694K/G695P/T698S/A714S/K717Q/S723C): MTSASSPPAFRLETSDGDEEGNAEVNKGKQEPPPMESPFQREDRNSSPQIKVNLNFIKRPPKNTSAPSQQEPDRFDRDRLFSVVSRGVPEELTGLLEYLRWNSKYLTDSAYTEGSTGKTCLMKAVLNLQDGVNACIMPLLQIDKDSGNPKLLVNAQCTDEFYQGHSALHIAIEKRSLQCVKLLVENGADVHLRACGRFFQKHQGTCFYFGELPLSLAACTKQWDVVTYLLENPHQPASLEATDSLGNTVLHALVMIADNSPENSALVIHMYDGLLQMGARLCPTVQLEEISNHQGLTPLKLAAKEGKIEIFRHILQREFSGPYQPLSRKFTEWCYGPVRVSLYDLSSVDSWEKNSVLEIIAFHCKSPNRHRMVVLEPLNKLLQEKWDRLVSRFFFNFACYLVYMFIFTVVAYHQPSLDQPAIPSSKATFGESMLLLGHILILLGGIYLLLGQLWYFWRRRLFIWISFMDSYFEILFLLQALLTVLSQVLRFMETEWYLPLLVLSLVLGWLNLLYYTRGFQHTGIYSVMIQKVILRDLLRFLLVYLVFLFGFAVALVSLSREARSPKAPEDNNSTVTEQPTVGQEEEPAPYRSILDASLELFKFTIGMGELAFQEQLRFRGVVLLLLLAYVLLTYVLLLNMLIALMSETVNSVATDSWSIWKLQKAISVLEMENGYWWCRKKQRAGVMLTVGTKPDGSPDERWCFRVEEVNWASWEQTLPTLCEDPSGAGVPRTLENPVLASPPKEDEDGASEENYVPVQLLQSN
Experimental: as §1, §2

Delta-9-tetrahydrocannabinol [Δ^9-THC]
response of chimera HRR to the compound [1]: not active | response of chimera RRH to the compound [2]: poorly
